Data: patent publication US20250388565A1, “ESTROGEN RECEPTOR ALPHA DEGRADERS AND METHODS OF USE THEREOF” (Relay Therapeutics, Inc., priority 2022, published 2025)

target: T1, ERα protein (HiBiT-tagged) in ESR1_HiBiT KI MCF7 cells (Homo sapiens, UniProt P03372); test: Nano Glo HiBiT Lytic Degradation Assay; type: cell-based; details: 6 hours with compound, 14-point dose response 1:3, bell-shape curve fit, half-maximal effect of first Hill model, read-out: MCF7 ESR1 HiBiT - (DC50)
T1 sequence (P03372 1-595): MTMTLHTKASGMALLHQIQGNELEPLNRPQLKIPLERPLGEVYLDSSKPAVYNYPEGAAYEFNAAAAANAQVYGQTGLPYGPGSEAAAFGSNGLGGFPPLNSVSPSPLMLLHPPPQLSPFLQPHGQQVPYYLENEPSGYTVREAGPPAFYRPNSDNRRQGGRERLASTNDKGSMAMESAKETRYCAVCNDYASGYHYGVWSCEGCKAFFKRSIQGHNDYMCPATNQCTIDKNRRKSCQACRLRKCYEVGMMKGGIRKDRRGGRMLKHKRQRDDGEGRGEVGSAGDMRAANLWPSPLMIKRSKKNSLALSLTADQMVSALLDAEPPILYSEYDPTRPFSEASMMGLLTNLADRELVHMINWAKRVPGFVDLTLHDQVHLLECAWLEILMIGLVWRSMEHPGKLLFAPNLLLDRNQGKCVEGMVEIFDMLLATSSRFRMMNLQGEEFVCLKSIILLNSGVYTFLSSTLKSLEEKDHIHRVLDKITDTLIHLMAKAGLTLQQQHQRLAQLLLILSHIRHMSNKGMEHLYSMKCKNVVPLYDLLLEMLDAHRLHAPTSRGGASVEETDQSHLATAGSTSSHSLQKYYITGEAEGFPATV
In short: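 Lytic Nano-Glo HiBiT luminescence quantified ERα remaining after a 6 h, 37° C compound exposure of MCF7 cells carrying endogenous HiBiT-tagged ESR1. Dosing used 14 threefold dilutions from a 10 mM DMSO stock (0.1% DMSO final), run in duplicate. Signals were corrected for cell-free background and expressed relative to DMSO, and DC50 came from a bell-shaped curve fit (first Hill model half-maximum).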

Row | Compound | DC50 [nM]
1 | O=C1CC[C@H](N2Cc3cc(N4CCC5(CCN(CC6CCN(c7ccc([C@H]8c9ccc(O)cc9CC[C@H]8c8ccccc8)cc7)CC6)CC5)CC4)ccc3C2=O)C(=O)N1 (single isomer, unassigned) [II-18] | ≥ 10000
2 | O=C1CCC(N2Cc3cc(N4CCN(CC5CCN(c6ccc([C@@H]7c8ccc(O)cc8CC[C@@H]7c7ccccc7)cc6)CC5)CC4)c(F)cc3C2=O)C(=O)N1 (single isomer, unassigned) [II-19] | ≥ 10000
3 | O=C1CC[C@H](N2Cc3cc(N4CCN(C[C@@H]5CCCN(c6ccc([C@@H]7c8ccc(O)cc8CC[C@@H]7c7ccccc7)cc6)C5)CC4)ccc3C2=O)C(=O)N1 (single isomer, unassigned) [II-20] | ≥ 10000
4 | O=C1CC[C@H](N2Cc3cc(N4CCN(C[C@@H]5CCCN(c6ccc([C@H]7c8ccc(O)cc8CC[C@H]7c7ccccc7)cc6)C5)CC4)ccc3C2=O)C(=O)N1 (single isomer, unassigned) [II-21] | 173
5 | O=C1CC[C@H](N2Cc3cc(N4CCN(C[C@H]5CCCN(c6ccc([C@@H]7c8ccc(O)cc8CC[C@@H]7c7ccccc7)cc6)C5)CC4)ccc3C2=O)C(=O)N1 (single isomer, unassigned) [II-22] | 5
6 | O=C1CC[C@H](N2Cc3cc(N4CCN(C[C@H]5CCCN(c6ccc([C@H]7c8ccc(O)cc8CC[C@H]7c7ccccc7)cc6)C5)CC4)ccc3C2=O)C(=O)N1 (single isomer, unassigned) [II-23] | ≥ 10000
7 | O=C1CC[C@H](N2Cc3cc(N4CCN(CC5CCN(c6ccc([C@@H]7c8ccc(O)cc8CC[C@@H]7c7ccccc7F)cc6)CC5)CC4)ccc3C2=O)C(=O)N1 (single isomer, unassigned) [II-24] | 245
8 | O=C1CC[C@H](N2Cc3cc(N4CCN(CC5CCN(c6ccc([C@@H]7c8ccc(O)cc8CC[C@@H]7c7cccc(F)c7)cc6)CC5)CC4)ccc3C2=O)C(=O)N1 (single isomer, unassigned) [II-26] | ≥ 10000
9 | Cc1cccc([C@H]2CCc3cc(O)ccc3[C@H]2c2ccc(N3CCC(CN4CCN(c5ccc6c(c5)CN([C@H]5CCC(=O)NC5=O)C6=O)CC4)CC3)cc2)c1 (single isomer, unassigned) [II-28] | 20
10 | O=C1CC[C@H](N2Cc3cc(N4CCN(C[C@@H]5CCN(c6ccc([C@@H]7c8ccc(O)cc8CC[C@@H]7c7ccccc7)cc6)C5)CC4)ccc3C2=O)C(=O)N1 (single isomer, unassigned) [II-32] | ≥ 10000
11 | Cc1ccccc1[C@H]1CCc2cc(O)ccc2[C@H]1c1ccc(N2CCC(CN3CCN(c4ccc5c(c4)CN([C@H]4CCC(=O)NC4=O)C5=O)CC3)CC2)cc1 (single isomer, unassigned) [II-34] | 40
12 | Cc1ccc([C@@H]2CCc3cc(O)ccc3[C@@H]2c2ccc(N3CCC(CN4CCN(c5ccc6c(c5)CN([C@H]5CCC(=O)NC5=O)C6=O)CC4)CC3)cc2)cc1 (single isomer, unassigned) [II-37] | 46
13 | O=C1CCC(N2Cc3cc(N4CC5(CN(CC6CCN(c7ccc([C@@H]8c9ccc(O)cc9CC[C@@H]8c8ccccc8)cc7)CC6)C5)C4)ccc3C2=O)C(=O)N1 (single isomer, unassigned) [II-39] | ≥ 10000
14 | O=C1CC[C@H](N2Cc3cc(N4CCN(CC5CCN(c6ccc([C@@H]7c8ccc(O)cc8CC[C@@H]7c7ccc(C(F)(F)F)cc7)cc6)CC5)CC4)ccc3C2=O)C(=O)N1 (single isomer, unassigned) [II-40] | ≥ 10000
15 | Cc1cc([C@@H]2c3ccc(O)cc3CC[C@@H]2c2ccccc2)ccc1N1CCC(CN2CCN(c3ccc4c(c3)CN([C@H]3CCC(=O)NC3=O)C4=O)CC2)CC1 (single isomer, unassigned) [II-42] | ≥ 10000
16 | Cc1cc([C@H]2c3ccc(O)cc3CC[C@H]2c2ccccc2)ccc1N1CCC(CN2CCN(c3ccc4c(c3)CN([C@H]3CCC(=O)NC3=O)C4=O)CC2)CC1 (single isomer, unassigned) [II-43] | 2
17 | CC(C1CCN(c2ccc([C@@H]3c4ccc(O)cc4CC[C@@H]3c3ccccc3)cc2)CC1)N1CCN(c2ccc3c(c2)CN([C@H]2CCC(=O)NC2=O)C3=O)CC1 (single isomer, unassigned) [II-44] | 2
18 | O=C1CC[C@H](N2Cc3cc(N4CCN(CC5CC6CCC(C5)N6c5ccc([C@@H]6c7ccc(O)cc7CC[C@@H]6c6ccccc6)cc5)CC4)ccc3C2=O)C(=O)N1 (single isomer, unassigned) [II-47] | 2
19 | C[C@H]1C[C@@H](CN2CCN(c3ccc4c(c3)CN(C3CCC(=O)NC3=O)C4=O)CC2)CCN1c1ccc([C@@H]2c3ccc(O)cc3CC[C@@H]2c2ccccc2)cc1 (single isomer, unassigned) [II-49] | 6
20 | C[C@]1(N2Cc3cc(N4CCN(CC5CCN(c6ccc([C@@H]7c8ccc(O)cc8CC[C@@H]7c7ccccc7)cc6)CC5)CC4)ccc3C2=O)CCC(=O)NC1=O (single isomer, unassigned) [II-57] | ≥ 10000
21 | C[C@@]1(N2Cc3cc(N4CCN(CC5CCN(c6ccc([C@@H]7c8ccc(O)cc8CC[C@@H]7c7ccccc7)cc6)CC5)CC4)ccc3C2=O)CCC(=O)NC1=O (single isomer, unassigned) [II-58] | ≥ 10000
22 | CC(C1CCN(c2ccc([C@@H]3c4ccc(O)cc4CC[C@@H]3c3ccccc3)cc2)CC1)N1CCN(c2ccc3c(c2)CN([C@@H]2CCC(=O)NC2=O)C3=O)CC1 (single isomer, unassigned) [II-67] | 47
23 | C[C@@H](C1CCN(c2ccc([C@@H]3c4ccc(O)cc4CC[C@@H]3c3ccccc3)cc2)CC1)N1CCN(c2ccc3c(c2)CN(C2CCC(=O)NC2=O)C3=O)CC1 (single isomer, unassigned) [II-70] | 5
24 | O=C1CCC(N2Cc3cc([C@@H]4CCN(CC5CCN(c6ccc([C@@H]7c8ccc(O)cc8CC[C@@H]7c7ccccc7)cc6)CC5)C[C@H]4F)ccc3C2=O)C(=O)N1 (single isomer, unassigned) [II-88] | 2
25 | O=C1CCC(N2Cc3cc([C@H]4CCN(CC5CCN(c6ccc([C@@H]7c8ccc(O)cc8CC[C@@H]7c7ccccc7)cc6)CC5)C[C@@H]4F)ccc3C2=O)C(=O)N1 (single isomer, unassigned) [II-89] | 1100

Other lines, results leading:

Row | DC50 [nM] | Compound
26 | 1.17 | O=C1CC[C@H](N2Cc3cc(N4CCN(CC5CCN(c6ccc([C@H]7c8ccc(O)cc8CC[C@H]7c7ccccc7F)cc6)CC5)CC4)ccc3C2=O)C(=O)N1 (single isomer, unassigned) [II-25]
27 | 0.82 | O=C1CC[C@H](N2Cc3cc(N4CCN(CC5CCN(c6ccc([C@H]7c8ccc(O)cc8CC[C@H]7c7cccc(F)c7)cc6)CC5)CC4)ccc3C2=O)C(=O)N1 (single isomer, unassigned) [II-27]
28 | 1.24 | Cc1cccc([C@@H]2CCc3cc(O)ccc3[C@@H]2c2ccc(N3CCC(CN4CCN(c5ccc6c(c5)CN([C@H]5CCC(=O)NC5=O)C6=O)CC4)CC3)cc2)c1 (single isomer, unassigned) [II-29]
29 | 2 | O=C1CC[C@H](N2Cc3cc(N4CCN(C[C@@H]5CCN(c6ccc([C@H]7c8ccc(O)cc8CC[C@H]7c7ccccc7)cc6)C5)CC4)ccc3C2=O)C(=O)N1 (single isomer, unassigned) [II-33]
30 | 0.34 | Cc1ccccc1[C@@H]1CCc2cc(O)ccc2[C@@H]1c1ccc(N2CCC(CN3CCN(c4ccc5c(c4)CN([C@H]4CCC(=O)NC4=O)C5=O)CC3)CC2)cc1 (single isomer, unassigned) [II-35]
31 | 0.93 | Cc1ccc([C@H]2CCc3cc(O)ccc3[C@H]2c2ccc(N3CCC(CN4CCN(c5ccc6c(c5)CN([C@H]5CCC(=O)NC5=O)C6=O)CC4)CC3)cc2)cc1 (single isomer, unassigned) [II-36]
32 | 1 | O=C1CCC(N2Cc3cc(N4CCN(CC5CCN(c6ccc([C@@H]7c8ccc(O)cc8CC[C@@H]7c7ccccc7)cc6)CC5)CC4)c(F)cc3C2=O)C(=O)N1 (single isomer, unassigned) [II-38]
33 | 2 | O=C1CC[C@H](N2Cc3cc(N4CCN(CC5CCN(c6ccc([C@H]7c8ccc(O)cc8CC[C@H]7c7ccc(C(F)(F)F)cc7)cc6)CC5)CC4)ccc3C2=O)C(=O)N1 (single isomer, unassigned) [II-41]
34 | 1 | C[C@@H]1C[C@H](CN2CCN(c3ccc4c(c3)CN(C3CCC(=O)NC3=O)C4=O)CC2)CCN1c1ccc([C@@H]2c3ccc(O)cc3CC[C@@H]2c2ccccc2)cc1 (single isomer, unassigned) [II-48]
35 | 0.006 | O=C1CC[C@H](N2Cc3cc(N4CCN(CC5CC6CCC(C5)N6c5ccc([C@H]6c7ccc(O)cc7CC[C@H]6c6ccccc6)cc5)CC4)ccc3C2=O)C(=O)N1 (single isomer, unassigned) [II-56]
36 | 0.08 | O=C1CCC(N2Cc3cc(N4CCC(CN5CCC(c6ccc([C@H]7c8ccc(O)cc8CC[C@H]7c7ccccc7)cc6)CC5)CC4)ccc3C2=O)C(=O)N1 (single isomer, unassigned) [II-61]
37 | 0.51 | C[C@H](C1CCN(c2ccc([C@@H]3c4ccc(O)cc4CC[C@@H]3c3ccccc3)cc2)CC1)N1CCN(c2ccc3c(c2)CN(C2CCC(=O)NC2=O)C3=O)CC1 (single isomer, unassigned) [II-69]
